Measurements taken from patent US20220305012A1, “L[…] TREATING SLEEP ISSUES” (EISAI R&D MANAGEMENT CO., LTD., priority 2019, published 2022).
Where two headings read alike, the source gives them in different places.

Experiments:
Assay type in all cases: in vivo, human
[1] = tested on: Subjects Having Insomnia Disorder; assay: Example 3: proportion of subjects whose ISI Total Score decreased and was <10 (pooled); conditions: for percentage of subjects whose ISI Total Score decreased at month 1 and was less than 10: end of month 1, pooled Examples 1 and 2; for Responder No: subjects whose Insomnia Severity Index Total Score decreased from Baseline to Month 1 and was <10 / Responder Yes: subjects whose Insomnia Severity Index Total Score decreased from Baseline to Month 1 and was <10: Full Analysis Set, Examples 1 and 2; for Responder No: subjects whose Insomnia Severity Index Total Score decreased from Baseline to Month 1 and was <10 / Responder Yes: subjects whose Insomnia Severity Index Total Score decreased from Baseline to Month 1 and was <10 / Difference of proportion of responders vs. Placebo: Month 1; for Difference of proportion of responders vs. Placebo: ISI Total Score decreased and <10
Procedure: The data collected in studies described in Example 1 and Example 2 were pooled and the response of each subject was analyzed.
Table 32 provides the summary and analysis of responders, defined as those subjects whose Total ISI Score decreased at the end of month 1 by 7 or more points compared to baseline. Table 33 provides the summary and analysis of responders, defined as those subjects whose ISI Total Score decreased compared to baseline and was less than 10 at month 1.

[2] = tested on: Subjects Having Insomnia Disorder; assay: Example 2: REM latency; conditions: both doses (FIG. 16)
[3] = tested on: Subjects Having Insomnia Disorder; assay: Example 1: Quality of Sleep rating (scale 1 to 9); conditions: for Quality of Sleep score, Mean (SD): Baseline; for Quality of Sleep score, Treatment difference (vs placebo): change from baseline at Month 6
Source text: In some embodiments, sleep diaries were used to assess sleep parameters reported by subjects (i.e., subjective assessments) including subjective sleep onset latency (sSOL), subjective sleep efficiency (sSE), subjective WASO (sWASO), and subjective total sleep time (sTST). Subjects were instructed to complete the Sleep Diary developed based on the consensus Sleep Diary as described in Carney et al., “The consensus sleep diary: standardizing prospective sleep self-monitoring,” Sleep 2012; 35(2):287-302. In some embodiments, the Sleep Diary was used to assess the subject's global perception of quality of sleep on the previous night with the following question: “How would you rate the quality of your sleep last night?” Subjects rated the quality of their sleep on a scale from 1 to 9, with 1 being extremely poor and 9 being extremely good. In some embodiments, the Sleep Diary was used to assess subjective ratings of morning sleepiness with the following question: “How alert/sleepy do you feel this morning?” Subjects rated their sleepiness/alertness level on a Likert scale from 1 to 9, with 1 being extremely sleepy and 9 being extremely alert.
Treatment period 1 began with the first dose of randomized study medication (placebo, 5 mg of lemborexant, or 10 mg of lemborexant). Subjects completed sleep diaries daily in the morning, within one hour of waketime. The subjects were assessed by a clinician one month, two months, three months, and six months after initiation of Treatment period 1.

[4] = tested on: Subjects Having Insomnia Disorder; assay: Example 1: treatment-emergent adverse events; conditions: for TEAEs: Safety Analysis Set
Procedure: Subjects were randomized in a double-blind manner and received either placebo, 5 mg of lemborexant, or 10 mg of lemborexant (approximately 1:1:1 randomization). All subjects underwent routine safety monitoring through the study, including assessments of treatment-emergent adverse events, 12-lead electrocardiograms, vital signs, weight, and clinical hematology and blood chemistry labs. Suicidality was assessed using the eC-SSRS.
Safety endpoints for this study included the safety and tolerability of lemborexant (1) compared to placebo (during treatment period 1) and (2) in subjects exposed to lemborexant for 3, 6, 9, and 12 months.

[5] = Example 1: plasma concentrations of lemborexant and metabolites; conditions: for concentration at 1 month / concentration at 3 month / concentration at 6 month: human, plasma
Procedure: Month 1 Assessment: Standard safety assessments were performed on the subject. A blood sample was collected for determination of plasma concentration of lemborexant and its metabolites, and the ISI, FSS, PGI-Insomnia, EQ-5D-3L, and eC-SSR were completed.
Month 3 Assessment: All assessments conducted at the Month 1 Assessment were repeated.
Month 6 Assessment: All assessments conducted at the Month 1 Assessment were repeated, and subjects completed the WPAI-GH.

Cc1ncc(OC[C@@]2(c3cccc(F)c3)C[C@H]2C(=O)Nc2ccc(F)cn2)c(C)n1 [Lemborexant, (1R,2S)-2-(((2,4-dimethylpyrimidin-5-yl)oxy)methyl)-2-(3-fluorophenyl)-N-(5-fluoropyridin-2-yl)cyclopropanecarboxamide]
percentage of subjects whose ISI Total Score decreased at month 1 and was less than 10 ([1]; 5 mg): 33.0% | percentage of subjects whose ISI Total Score decreased at month 1 and was less than 10 ([1]; 10 mg): 33.4% | Responder No: subjects whose Insomnia Severity Index Total Score decreased from Baseline to Month 1 and was <10 ([1]; Lemborexant 5 mg (N = 582)): 366 (62.9) n (%) | Responder Yes: subjects whose Insomnia Severity Index Total Score decreased from Baseline to Month 1 and was <10 ([1]; Lemborexant 5 mg (N = 582)): 192 (33.0) n (%) | Difference of proportion of responders vs. Placebo ([1]; Lemborexant 5 mg vs placebo): 12.44 | Responder No: subjects whose Insomnia Severity Index Total Score decreased from Baseline to Month 1 and was <10 ([1]; Lemborexant 10 mg (N = 584)): 345 (59.1) n (%) | Responder Yes: subjects whose Insomnia Severity Index Total Score decreased from Baseline to Month 1 and was <10 ([1]; Lemborexant 10 mg (N = 584)): 195 (33.4) n (%) | Difference of proportion of responders vs. Placebo ([1]; Lemborexant 10 mg vs placebo): 12.71 | difference of proportion of responders (ISI Total Score decreased and less than 10) versus placebo ([1]; both doses, month 1 (Table 33)): statistically significant | REM latency [2]: greater mean decrease in REM latency compared to treatment with placebo and zolpidem ER | Quality of Sleep score, Mean (SD) ([3]; 5 mg): 4.0 (1.3) | Quality of Sleep score, Treatment difference (vs placebo) ([3]; 5 mg): 0.28 | Quality of Sleep score, Mean (SD) ([3]; 10 mg): 4.0 (1.4) | Quality of Sleep score, Treatment difference (vs placebo) ([3]; 10 mg): 0.32 | quality of sleep compared with placebo ([3]; at 6 months (Table 8)): significantly improved | Deaths ([4]; 5 mg (N = 314)): 0 n (%) | Other SAEs ([4]; 5 mg (N = 314)): 7 (2.2) n (%) | SAEs: Congenital anomaly/birth defect ([4]; 5 mg (N = 314)): 0 n (%) | SAEs: Important medical events ([4]; 5 mg (N = 314)): 1 (0.3) n (%) | SAEs: Life threatening ([4]; 5 mg (N = 314)): 0 n (%) | SAEs: Persistent or significant disability or incapacity ([4]; 5 mg (N = 314)): 0 n (%) | SAEs: Requires inpatient hospitalization or prolongation of existing hospitalization ([4]; 5 mg (N = 314)): 6 (1.9) n (%) | Serious TEAEs ([4]; 5 mg (N = 314)): 7 (2.2) n (%) | Severe TEAEs ([4]; 5 mg (N = 314)): 13 (4.1) n (%) | TEAEs leading to study dose reduced ([4]; 5 mg (N = 314)): 0 n (%) | TEAEs leading to study drug dose adjustment ([4]; 5 mg (N = 314)): 25 (8.0) n (%) | TEAEs leading to study drug interrupted ([4]; 5 mg (N = 314)): 13 (4.1) n (%) | TEAEs leading to study drug withdrawal ([4]; 5 mg (N = 314)): 13 (4.1) n (%) | Treatment-related TEAEs ([4]; 5 mg (N = 314)): 78 (24.8) n (%) | TEAEs ([4]; 5 mg (N = 314)): 192 (61.1) n (%) | Deaths ([4]; 10 mg (N = 314)): 0 n (%) | Other SAEs ([4]; 10 mg (N = 314)): 9 (2.9) n (%) | SAEs: Congenital anomaly/birth defect ([4]; 10 mg (N = 314)): 0 n (%) | SAEs: Important medical events ([4]; 10 mg (N = 314)): 0 n (%) | SAEs: Life threatening ([4]; 10 mg (N = 314)): 0 n (%) | SAEs: Persistent or significant disability or incapacity ([4]; 10 mg (N = 314)): 0 n (%) | SAEs: Requires inpatient hospitalization or prolongation of existing hospitalization ([4]; 10 mg (N = 314)): 9 (2.9) n (%) | Serious TEAEs ([4]; 10 mg (N = 314)): 9 (2.9) n (%) | Severe TEAEs ([4]; 10 mg (N = 314)): 8 (2.5) n (%) | TEAEs leading to study dose reduced ([4]; 10 mg (N = 314)): 0 n (%) | TEAEs leading to study drug dose adjustment ([4]; 10 mg (N = 314)): 33 (10.5) n (%) | TEAEs leading to study drug interrupted ([4]; 10 mg (N = 314)): 8 (2.5) n (%) | TEAEs leading to study drug withdrawal ([4]; 10 mg (N = 314)): 26 (8.3) n (%) | Treatment-related TEAEs ([4]; 10 mg (N = 314)): 91 (29.0) n (%) | TEAEs ([4]; 10 mg (N = 314)): 187 (59.6) n (%) | safety and tolerability (incidence of adverse events) ([4]; Example 1 (Table 11)): safe and well-tolerated | concentration at 1 month ([5]; 10 mg, lemborexant 10 mg dose, Month 1, read-out: Plasma concentration, Mean (SD)): 16.3 ng/mL | concentration at 1 month ([5]; 10 mg, lemborexant 10 mg dose, Month 1, read-out: Plasma concentration, Median): 15.1 ng/mL | concentration at 3 month ([5]; 10 mg, lemborexant 10 mg dose, Month 3, read-out: Plasma concentration, Mean (SD)): 15.6 ng/mL | concentration at 3 month ([5]; 10 mg, lemborexant 10 mg dose, Month 3, read-out: Plasma concentration, Median): 15.1 ng/mL | concentration at 6 month ([5]; 10 mg, lemborexant 10 mg dose, Month 6, read-out: Plasma concentration, Mean (SD)): 15.2 ng/mL | concentration at 6 month ([5]; 10 mg, lemborexant 10 mg dose, Month 6, read-out: Plasma concentration, Median): 14.5 ng/mL | concentration at 1 month ([5]; oral, 5 mg, lemborexant 5 mg dose, Month 1, read-out: Plasma concentration, Mean (SD)): 9 ng/mL | concentration at 1 month ([5]; oral, 5 mg, lemborexant 5 mg dose, Month 1, read-out: Plasma concentration, Median): 7.6 ng/mL | concentration at 3 month ([5]; oral, 5 mg, lemborexant 5 mg dose, Month 3, read-out: Plasma concentration, Mean (SD)): 8.4 ng/mL | concentration at 3 month ([5]; oral, 5 mg, lemborexant 5 mg dose, Month 3, read-out: Plasma concentration, Median): 7.7 ng/mL | concentration at 6 month ([5]; oral, 5 mg, lemborexant 5 mg dose, Month 6, read-out: Plasma concentration, Mean (SD)): 7.9 ng/mL | concentration at 6 month ([5]; oral, 5 mg, lemborexant 5 mg dose, Month 6, read-out: Plasma concentration, Median): 6.9 ng/mL | Plasma concentration BLQ (<0.0500 ng/mL) ([5]; lemborexant 5 mg dose, Month 1): 31 (10.5) n (%) | Plasma concentration BLQ (<0.0500 ng/mL) ([5]; lemborexant 5 mg dose, Month 3): 34 (12.6) n (%) | Plasma concentration BLQ (<0.0500 ng/mL) ([5]; lemborexant 5 mg dose, Month 6): 45 (18.2) n (%) | Plasma concentration BLQ (<0.0500 ng/mL) ([5]; lemborexant 10 mg dose, Month 1): 21 (7.4) n (%) | Plasma concentration BLQ (<0.0500 ng/mL) ([5]; lemborexant 10 mg dose, Month 3): 29 (11.2) n (%) | Plasma concentration BLQ (<0.0500 ng/mL) ([5]; lemborexant 10 mg dose, Month 6): 33 (14.6) n (%)
